Test results published in paper PMC11678425, “(-)-Syringaresinol Exerts an Antidepressant-like Activity in Mice by Noncompetitive Inhibition of the Serotonin Transporter” (Pharmaceuticals, 2024).

Key:
hSERT S438T = target: T1, hSERT S438T (Homo sapiens, UniProt P31645, S438T); experiment: APP^+ uptake, hSERT S438T; format: cell-based; conditions: S1 site mutant, read-out: SYR IC50 for Transport
T1 construct: forward and reverse primers were used to amplify a full-length hSERT; expressed in transfected cells; host or cells: HeLa
Experimental: (§1) HeLa cells were cultured in Dulbecco’s Modified Eagle’s Medium supplemented with 10% fetal bovine serum, 100 units/mL penicillin, and 100 μg/mL streptomycin at 37 °C in a humidified 5% CO2 incubator. Cells grown at ~70% confluence in a 6 cm culture dish were transfected with hSERT cDNA in pcDNA3.1 by lipofectamine 2000. Transfected cells were incubated for 12 h at 37 °C with 5% CO2 and then transferred into 96-well plates. After being grown for an additional 12–16 h, the cells were then assayed for APP^+ uptake or ASP^+ binding.
(§2) Measurement of transport or ligand binding activity of SERT was performed by using its fluorescent substrate (APP^+) or ligand (ASP^+), respectively. The cells transiently expressing WT or mutants of hSERT were applied for various treatments. Briefly, the cells were washed twice with 100 μL KRH buffer containing 20 mM HEPES (Neofroxx, Einhausen, Germany), pH 7.4, 120 mM NaCl, 1.3 mM KCl, 2.2 mM CaCl2, 1.2 mM MgSO4, and 0.1% (w/v) glucose. APP^+ uptake was measured by adding 100 μL KRH buffer containing 2 μM APP^+ and incubating for 5 min at 22 °C. Excess APP^+ was then removed by 3× rapid washing with 100 μL KRH buffer each time. The extent of APP^+ accumulated in the cells was determined by fluorescence spectrometry with an Infinite 200 Pro microplate reader (Tecan, Männedorf, Switzerland). […]

[1] = system: BDNF, PSD-95, GluA1, and vGluT1; experiment: Immunoblot of synaptic proteins in mPFC of CUMS mice; format: in vivo, mouse; conditions: SYR administration
Experimental: Figure 7 SYR effects on the expression of c-Fos and synaptic proteins in mPFC. (A) Representative immunohistochemical images of c-Fos expression in mPFC under the indicated treatments. Immunohistochemistry of c-Fos was performed with mPFC slices as described in Section 4. The slices were re-probed with anti-DAPI antibody. Immunofluorescence images for c-Fos (green) and DAPI (blue) were acquired by confocal microscopy. (B) Quantitative analysis for c-Fos expression in mPFC with various treatments. Protein expression is expressed as a percentage of c-Fos fluorescence measured in the control group. Bars represent the mean ± SEM (n = 4). * p < 0.05, ** p < 0.01 compared with the control or CUMS group by one-way ANOVA followed by post hoc tests, respectively. […] (D–G) Quantification of the expression of the synaptic proteins BDNF (D), PSD-95 (E), GluA1 (F), and vGluT1 (G). The expression level is expressed as a percentage of the integrated density obtained from the control group. […]
Synaptic proteins were extracted from mPFC or hippocampus tissues using RIPA lysis buffer, respectively. Expression of the indicated proteins under various treatments was then analyzed by immunoblotting, as previously reported. […] Quantification of immunoreactive protein bands was performed using Image J v1.53u, and GAPDH was used as an internal reference to normalize expression levels of those proteins, respectively.

hSERT Q111N = target: T2, hSERT Q111N (Homo sapiens, UniProt P31645, Q111N); experiment: ASP^+ binding, hSERT Q111N; conditions: S2 site mutant, read-out: SYR IC50 for Binding
T2 construct: forward and reverse primers were used to amplify a full-length hSERT; expressed in transfected cells; host or cells: HeLa cells, transient, pcDNA3.1
T2 sequence (P31645 whole entry Q111N): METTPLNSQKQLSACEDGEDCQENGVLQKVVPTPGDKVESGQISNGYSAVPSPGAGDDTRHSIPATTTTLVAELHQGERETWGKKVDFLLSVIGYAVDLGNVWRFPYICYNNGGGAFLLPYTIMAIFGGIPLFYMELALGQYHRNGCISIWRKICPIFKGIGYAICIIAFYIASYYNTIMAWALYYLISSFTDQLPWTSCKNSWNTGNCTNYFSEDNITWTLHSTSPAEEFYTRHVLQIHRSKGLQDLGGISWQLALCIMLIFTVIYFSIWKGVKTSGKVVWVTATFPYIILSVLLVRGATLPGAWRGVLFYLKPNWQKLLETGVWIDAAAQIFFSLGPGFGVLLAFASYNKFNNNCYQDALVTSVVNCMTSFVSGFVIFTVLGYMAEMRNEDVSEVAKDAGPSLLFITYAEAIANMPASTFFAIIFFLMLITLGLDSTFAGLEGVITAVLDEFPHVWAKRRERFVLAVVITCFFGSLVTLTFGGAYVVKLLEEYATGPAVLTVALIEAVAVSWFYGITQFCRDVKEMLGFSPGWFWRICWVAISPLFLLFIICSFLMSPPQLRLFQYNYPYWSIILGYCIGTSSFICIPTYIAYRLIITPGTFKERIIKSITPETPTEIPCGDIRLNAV

hSERT E494Q = target: T3, hSERT E494Q (Homo sapiens, UniProt P31645, E494Q); experiment: APP^+ uptake, hSERT E494Q; format: cell-based; conditions: S2 site mutant, read-out: SYR IC50 for Transport
T3 construct: forward and reverse primers were used to amplify a full-length hSERT; expressed in transfected cells; host or cells: HeLa cells, transient, pcDNA3.1
T3 sequence (P31645 whole entry E494Q): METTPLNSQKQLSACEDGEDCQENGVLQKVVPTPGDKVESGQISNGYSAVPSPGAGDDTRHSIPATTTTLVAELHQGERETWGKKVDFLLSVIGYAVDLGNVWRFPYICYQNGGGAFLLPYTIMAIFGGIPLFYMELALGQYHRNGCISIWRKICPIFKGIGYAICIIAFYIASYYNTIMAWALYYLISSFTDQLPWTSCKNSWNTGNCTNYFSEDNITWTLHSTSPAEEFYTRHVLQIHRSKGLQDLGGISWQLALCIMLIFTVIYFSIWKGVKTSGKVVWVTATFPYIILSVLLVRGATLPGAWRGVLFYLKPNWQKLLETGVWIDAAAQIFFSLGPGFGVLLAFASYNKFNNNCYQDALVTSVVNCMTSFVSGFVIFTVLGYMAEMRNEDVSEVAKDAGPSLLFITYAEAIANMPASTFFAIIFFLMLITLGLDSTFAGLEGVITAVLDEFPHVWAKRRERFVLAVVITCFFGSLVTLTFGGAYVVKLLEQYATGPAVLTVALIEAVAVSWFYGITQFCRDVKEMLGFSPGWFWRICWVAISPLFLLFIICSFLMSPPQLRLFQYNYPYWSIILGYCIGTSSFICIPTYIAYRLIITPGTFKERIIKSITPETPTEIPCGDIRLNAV

hSERT I172F = target: T4, hSERT I172F (Homo sapiens, UniProt P31645, I172F); experiment: ASP^+ binding, hSERT I172F; conditions: S1 site mutant, read-out: SYR IC50 for Binding
T4 construct: forward and reverse primers were used to amplify a full-length hSERT; expressed in transfected cells; host or cells: HeLa
T4 sequence (P31645 whole entry I172F): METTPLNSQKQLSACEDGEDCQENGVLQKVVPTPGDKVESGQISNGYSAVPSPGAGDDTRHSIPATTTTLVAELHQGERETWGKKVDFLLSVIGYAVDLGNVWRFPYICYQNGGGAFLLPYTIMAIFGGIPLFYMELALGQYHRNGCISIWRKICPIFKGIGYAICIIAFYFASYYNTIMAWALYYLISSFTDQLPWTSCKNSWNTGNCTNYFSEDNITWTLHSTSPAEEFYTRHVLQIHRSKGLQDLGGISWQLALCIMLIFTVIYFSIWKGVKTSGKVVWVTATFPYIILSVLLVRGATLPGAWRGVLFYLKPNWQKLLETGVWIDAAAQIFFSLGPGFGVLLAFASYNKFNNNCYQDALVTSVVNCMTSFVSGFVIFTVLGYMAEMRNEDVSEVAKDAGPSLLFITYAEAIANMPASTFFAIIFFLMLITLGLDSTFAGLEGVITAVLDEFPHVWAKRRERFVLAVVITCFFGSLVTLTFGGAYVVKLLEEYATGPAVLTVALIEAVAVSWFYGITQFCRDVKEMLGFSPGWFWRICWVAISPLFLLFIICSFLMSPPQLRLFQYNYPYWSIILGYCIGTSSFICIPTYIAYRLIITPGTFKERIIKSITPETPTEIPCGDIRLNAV

hSERT S559A = target: T5, hSERT S559A (Homo sapiens, UniProt P31645, S559A); experiment: APP^+ uptake, hSERT S559A; format: cell-based; conditions: S2 site mutant, read-out: SYR IC50 for Transport
T5 construct: forward and reverse primers were used to amplify a full-length hSERT; expressed in transfected cells; host or cells: HeLa cells, transient, pcDNA3.1

[2] = system: hSERT S1 mutants (Y95F, I172F, S438T); experiment: APP^+ uptake, S1 site mutants compared with WT; format: cell-based, human
Experimental: as §1, §2

CUMS mice = conditions: all tested dosages, i.p.
hSERT Y579A = target: T6, hSERT Y579A (Homo sapiens, UniProt P31645, Y579A); experiment: APP^+ uptake, hSERT Y579A; format: cell-based; conditions: S2 site mutant, read-out: SYR IC50 for Transport
T6 construct: forward and reverse primers were used to amplify a full-length hSERT; expressed in transfected cells; host or cells: HeLa

hSERT F556A = target: T7, hSERT F556A (Homo sapiens, UniProt P31645, F556A); experiment: ASP^+ binding, hSERT F556A; conditions: S2 site mutant, read-out: SYR IC50 for Binding
T7 construct: forward and reverse primers were used to amplify a full-length hSERT; expressed in transfected cells; host or cells: HeLa cells, transient, pcDNA3.1
T7 sequence (P31645 whole entry F556A): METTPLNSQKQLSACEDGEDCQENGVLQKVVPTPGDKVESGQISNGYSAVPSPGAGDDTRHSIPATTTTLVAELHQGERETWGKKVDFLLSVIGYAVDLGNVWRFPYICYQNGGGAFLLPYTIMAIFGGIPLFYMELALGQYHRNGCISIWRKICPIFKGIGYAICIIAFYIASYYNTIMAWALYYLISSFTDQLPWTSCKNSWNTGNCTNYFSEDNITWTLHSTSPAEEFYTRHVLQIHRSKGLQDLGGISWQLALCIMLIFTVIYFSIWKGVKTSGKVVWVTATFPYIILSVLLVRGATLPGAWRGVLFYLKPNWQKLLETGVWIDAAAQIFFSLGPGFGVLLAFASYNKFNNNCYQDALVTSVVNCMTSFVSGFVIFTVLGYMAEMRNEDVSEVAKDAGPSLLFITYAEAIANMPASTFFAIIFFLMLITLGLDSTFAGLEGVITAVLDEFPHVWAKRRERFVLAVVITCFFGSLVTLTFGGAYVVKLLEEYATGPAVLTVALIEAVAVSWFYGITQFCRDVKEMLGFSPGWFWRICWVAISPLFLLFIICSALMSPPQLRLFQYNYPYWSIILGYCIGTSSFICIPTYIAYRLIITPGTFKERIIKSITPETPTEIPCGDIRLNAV

hSERT P561G [3] = target: T8, hSERT P561G (Homo sapiens, UniProt P31645, P561G); experiment: ASP^+ binding, hSERT P561G; conditions: S2 site mutant, read-out: SYR IC50 for Binding
T8 construct: forward and reverse primers were used to amplify a full-length hSERT; expressed in transfected cells; host or cells: HeLa
T8 sequence (P31645 whole entry P561G): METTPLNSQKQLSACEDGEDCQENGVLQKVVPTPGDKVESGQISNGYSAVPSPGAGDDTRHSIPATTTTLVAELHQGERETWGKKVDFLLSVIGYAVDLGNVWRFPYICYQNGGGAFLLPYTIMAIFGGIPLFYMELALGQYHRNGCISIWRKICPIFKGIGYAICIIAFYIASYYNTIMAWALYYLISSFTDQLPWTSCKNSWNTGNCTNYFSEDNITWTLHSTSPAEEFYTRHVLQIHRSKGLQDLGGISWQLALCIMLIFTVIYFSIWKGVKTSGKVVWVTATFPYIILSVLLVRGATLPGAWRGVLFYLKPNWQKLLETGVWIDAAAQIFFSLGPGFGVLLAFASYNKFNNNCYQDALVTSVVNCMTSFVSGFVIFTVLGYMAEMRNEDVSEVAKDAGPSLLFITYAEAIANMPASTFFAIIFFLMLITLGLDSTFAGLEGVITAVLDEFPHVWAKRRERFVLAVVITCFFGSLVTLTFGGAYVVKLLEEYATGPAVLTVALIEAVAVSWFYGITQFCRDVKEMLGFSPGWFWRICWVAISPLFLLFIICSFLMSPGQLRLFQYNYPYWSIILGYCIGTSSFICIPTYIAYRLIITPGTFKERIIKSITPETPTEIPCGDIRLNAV

hSERT G498T = target: T9, hSERT G498T (Homo sapiens, UniProt P31645, G498T); experiment: ASP^+ binding, hSERT G498T; conditions: S2 site mutant, read-out: SYR IC50 for Binding
T9 construct: forward and reverse primers were used to amplify a full-length hSERT; expressed in transfected cells; host or cells: HeLa cells, transient, pcDNA3.1
T9 sequence (P31645 whole entry G498T): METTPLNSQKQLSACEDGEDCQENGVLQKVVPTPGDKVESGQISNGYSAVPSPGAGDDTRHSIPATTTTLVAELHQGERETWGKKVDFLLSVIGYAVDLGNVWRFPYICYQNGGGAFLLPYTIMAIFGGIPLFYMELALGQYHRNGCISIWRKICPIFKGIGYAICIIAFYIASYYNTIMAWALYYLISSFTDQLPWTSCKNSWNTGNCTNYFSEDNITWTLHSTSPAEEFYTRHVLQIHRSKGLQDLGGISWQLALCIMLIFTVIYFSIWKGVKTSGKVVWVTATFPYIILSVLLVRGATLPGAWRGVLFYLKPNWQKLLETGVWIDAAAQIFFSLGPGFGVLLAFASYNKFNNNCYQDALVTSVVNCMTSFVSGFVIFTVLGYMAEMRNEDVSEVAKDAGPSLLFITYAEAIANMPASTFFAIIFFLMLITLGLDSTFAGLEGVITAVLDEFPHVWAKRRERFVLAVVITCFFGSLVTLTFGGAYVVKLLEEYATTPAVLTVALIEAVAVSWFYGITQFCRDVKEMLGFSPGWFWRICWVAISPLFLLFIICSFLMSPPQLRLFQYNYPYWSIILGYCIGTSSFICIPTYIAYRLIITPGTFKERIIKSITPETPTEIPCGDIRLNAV

hSERT I327A = target: T10, hSERT I327A (Homo sapiens, UniProt P31645, I327A); experiment: APP^+ uptake, hSERT I327A; format: cell-based; conditions: S2 site mutant, read-out: SYR IC50 for Transport
T10 construct: forward and reverse primers were used to amplify a full-length hSERT; expressed in transfected cells; host or cells: HeLa cells, transient, pcDNA3.1
T10 sequence (P31645 whole entry I327A): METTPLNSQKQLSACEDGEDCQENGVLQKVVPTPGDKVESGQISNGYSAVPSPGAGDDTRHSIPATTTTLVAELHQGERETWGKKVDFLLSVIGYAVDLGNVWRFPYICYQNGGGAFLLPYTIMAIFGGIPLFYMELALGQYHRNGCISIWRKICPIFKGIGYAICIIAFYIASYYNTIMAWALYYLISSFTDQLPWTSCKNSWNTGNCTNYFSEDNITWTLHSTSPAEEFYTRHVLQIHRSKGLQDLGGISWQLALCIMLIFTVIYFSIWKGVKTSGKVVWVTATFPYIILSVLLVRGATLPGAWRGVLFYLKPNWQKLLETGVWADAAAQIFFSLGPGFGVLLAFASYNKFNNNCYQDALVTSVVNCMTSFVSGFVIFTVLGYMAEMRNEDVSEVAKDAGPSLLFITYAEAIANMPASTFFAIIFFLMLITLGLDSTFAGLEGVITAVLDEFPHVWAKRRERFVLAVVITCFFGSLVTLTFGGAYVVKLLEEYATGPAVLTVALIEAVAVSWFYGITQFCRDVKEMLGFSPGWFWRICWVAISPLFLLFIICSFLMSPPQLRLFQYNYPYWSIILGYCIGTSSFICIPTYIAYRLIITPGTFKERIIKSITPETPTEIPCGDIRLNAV

hSERT D328A = target: T11, hSERT D328A (Homo sapiens, UniProt P31645, D328A); experiment: ASP^+ binding, hSERT D328A; conditions: S2 site mutant, read-out: SYR IC50 for Binding
T11 construct: forward and reverse primers were used to amplify a full-length hSERT; expressed in transfected cells; host or cells: HeLa cells, transient, pcDNA3.1
T11 sequence (P31645 whole entry D328A): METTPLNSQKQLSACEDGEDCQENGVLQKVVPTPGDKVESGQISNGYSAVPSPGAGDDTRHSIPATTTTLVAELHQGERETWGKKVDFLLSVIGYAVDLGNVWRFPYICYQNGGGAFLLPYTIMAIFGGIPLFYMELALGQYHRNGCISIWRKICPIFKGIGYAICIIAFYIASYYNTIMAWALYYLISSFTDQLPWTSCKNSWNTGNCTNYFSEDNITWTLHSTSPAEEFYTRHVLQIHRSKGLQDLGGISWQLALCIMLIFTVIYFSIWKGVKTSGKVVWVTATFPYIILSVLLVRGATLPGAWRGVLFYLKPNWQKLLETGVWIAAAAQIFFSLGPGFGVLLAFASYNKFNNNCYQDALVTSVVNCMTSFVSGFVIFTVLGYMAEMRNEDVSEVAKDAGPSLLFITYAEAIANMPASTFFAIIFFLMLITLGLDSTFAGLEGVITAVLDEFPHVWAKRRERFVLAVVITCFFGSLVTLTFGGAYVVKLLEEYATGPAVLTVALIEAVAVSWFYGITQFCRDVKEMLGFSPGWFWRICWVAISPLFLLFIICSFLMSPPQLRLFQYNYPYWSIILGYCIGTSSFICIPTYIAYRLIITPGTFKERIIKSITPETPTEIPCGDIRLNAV

hSERT P561G [4] = target: T8, hSERT P561G; experiment: APP^+ uptake, hSERT P561G; format: cell-based; conditions: S2 site mutant, read-out: SYR IC50 for Transport

Q: What does the source list for `COc1cc([C@@H]2OC[C@@H]3[C@H]2CO[C@H]3c2cc(OC)c(O)c(OC)c2)cc(OC)c1O` [SYR, (-)-syringaresinol]?
A: IC50 (hSERT S438T): 0.91 ± 0.02 µM; CUMS-induced reduction in expression of synaptic proteins BDNF, PSD-95, GluA1, vGluT1 in mPFC [1]: attenuated; IC50 (hSERT Q111N): 115 ± 2.47 µM; IC50 (hSERT E494Q): 12 ± 2.17 µM; IC50 (hSERT I172F): 1.51 ± 0.04 µM; IC50 (hSERT S559A): 19.5 ± 1.46 µM; SYR IC50 for APP^+ uptake relative to WT [2]: 3- to 10 fold; fatality rate (CUMS mice): zero fatality rate; IC50 (hSERT Y579A): 16.3 ± 1.06 µM; IC50 (hSERT F556A): 21.6 ± 1.2 µM; IC50 (hSERT P561G [3]): 131 ± 5.72 µM; IC50 (hSERT G498T): 91 ± 6.29 µM; IC50 (hSERT I327A): 19.5 ± 1.02 µM; IC50 (hSERT D328A): 39.2 ± 0.78 µM; IC50 (hSERT P561G [4]): 46.3 ± 0.94 µM
